Measured values taken from ChEMBL document CHEMBL1148086, “Isolation of the furan fatty acid, (8Z,11Z,14Z,17Z)-3,6-epoxyeicos-3,5,8,11,14,17-hexenoic acid from the New Zealand sponge Hymeniacidon hauraki” (J Nat Prod, 1994).
In brackets after ≈: the same amount, converted by molar mass. Activity calls are given as the source filed them. No cut-off for these calls is given here.

What was measured:
Human alphaherpesvirus 1 = test: Antiviral activity against Herpes simplex virus type 1 in african green monkey BSC1 cells after 24 hrs; format: functional, organism-based
[1] = Cytotoxicity against african green monkey BSC1 cells after 24 hrs; format: cell-based; conditions: chlorocebus aethiops, bsc-1, 24 h
Poliovirus 1 = test: Antiviral activity against Polio virus type 1 in african green monkey BSC1 cells after 24 hrs; format: functional, organism-based
P388 = test: Cytotoxicity against mouse P388 cells after 48 hrs by SRB assay; format: functional, cell-based

| Structure (SMILES) | Activity (Human alphaherpesvirus 1; BSC-1) | Activity [1] | Activity (Poliovirus 1; BSC-1) | IC50 (P388; Mus musculus, P388, 48 h, read-out: IC50) [µg/mL] | IC50 (Human alphaherpesvirus 1; bsc-1) | IC50 (Poliovirus 1; bsc-1) | IC50 (P388; p388) |
| --- | --- | --- | --- | --- | --- | --- | --- |
| CC/C=C\C/C=C\C/C=C\C/C=C\Cc1ccc(CC(=O)O)o1 | Active | 2 mm | Active | 13.4 (≈ 42.6 µM) | – | – | – |
| CC/C=C\C/C=C\C/C=C\C/C=C\Cc1ccc(CC(=O)OC)o1 | – | Not Active | – | – | Not Active | Not Active | Not Active |
